The values that follow come from US9073881B2, “Benzoic acid derivatives” (HOFFMANN-LA ROCHE INC., priority 2011, dated 2015).

Broadly, the IC50 is the concentration that inhibits the measured activity by half.

Some results are limits rather than exact numbers.

This assay deals with Human eIF4E (Homo sapiens (Human), UniProt P06730). As to the kind of experiment: Human eIF4E/4G binding assay (time-resolved fluorescence, HH-eIF4E and biotin-labeled 4G2 peptide). The following applies: inhibition of binding of His-tagged human eIF4E (aa 28-217) to biotin-labeled 4G2 peptide. The protocol:
The protein was solubilized with 8 M urea and purified under denaturing conditions using nickel-charged HisTrap HP columns (GE Healthcare). The protein was refolded by diluting to approximately 0.25 mg/mL with 6 M urea, 20 mM Hepes pH 7.0, 500 mM NaCl, 1 mM DTT, 1 mM EDTA, and 0.5 M arginine.HCl, and then dialyzing overnight into the same buffer without the urea. The protein was further dialyzed into 20 mM Hepes pH 6.5, 50 mM NaCl, 1 mM EDTA, and 1 mM DTT, filtered, and then concentrated using Hitrap SP sepharose FF columns (GE Healthcare). The protein was dialyzed into 20 mM Hepes pH 7.0, 500 mM NaCl, 5 mM DTT, and 10% glycerol and stored at −80° C. until use. Test compounds (1.6 mM stock in DMSO) were diluted 3 fold in series in DMSO. Compound solutions were diluted 4 fold in Assay Buffer (50 mM sodium phosphate, pH 6.5, 50 mM KCl, 1 mM DTT and 0.5 mg/mL gammaglobulin). […] The samples were incubated at room temperature for 20 minutes. […] IC50 values were calculated using Condoseo software (Genedata AG).

Sequence of Human eIF4E (P06730 28-217): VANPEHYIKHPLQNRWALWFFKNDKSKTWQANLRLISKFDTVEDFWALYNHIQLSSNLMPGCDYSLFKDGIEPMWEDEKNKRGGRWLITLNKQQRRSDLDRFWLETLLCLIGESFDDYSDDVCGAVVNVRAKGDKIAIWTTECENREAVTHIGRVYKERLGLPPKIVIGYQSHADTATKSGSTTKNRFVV

Molecule `CN1CCC(NC(=O)c2ccc(-c3ccc(-c4nc(-c5ccc(Cl)c(Cl)c5)cs4)cc3C(=O)O)cc2)CC1` [Example 51, 4-[4-(3,4-Dichloro-phenyl)-thiazol-2-yl]-4′-(1-methyl-piperidin-4-ylcarbamoyl)-biphenyl-2-carboxylic acid] showed an IC50 of more than 80 µM.

The molecule `CC(=O)N1CCC(NC(=O)c2ccc(-c3ccc(-c4nc(-c5ccc(Cl)c(Cl)c5)cs4)cc3C(=O)O)cc2)CC1` [Example 52, 4′-(1-Acetyl-piperidin-4-ylcarbamoyl)-4-[4-(3,4-dichloro-phenyl)-thiazol-2-yl]-biphenyl-2-carboxylic acid] registered an IC50 of 10 µM. That is a double-digit micromolar value.

`CN1CCN(C(=O)c2ccc(-c3ccc(-c4nc(-c5ccc(Cl)c(Cl)c5)cs4)cc3C(=O)O)cc2)CC1` [Example 53, 4-[4-(3,4-Dichloro-phenyl)-thiazol-2-yl]-4′-(4-methyl-piperazine-1-carbonyl)-biphenyl-2-carboxylic acid]: the IC50 is more than 80 µM.

`O=C(O)c1cc(-c2nc(-c3ccc(Cl)c(Cl)c3)cs2)ccc1-c1ccc(C(=O)N2CCCC2)cc1` [Example 57, 4-[4-(3,4-Dichloro-phenyl)-thiazol-2-yl]-4′-(pyrrolidine-1-carbonyl)-biphenyl-2-carboxylic acid] registered a half-inhibitory concentration (IC50) of 4.3 µM. The same measure for `O=C(NCCCN1CCOCC1)c1ccc(-c2ccc(-c3nc(-c4ccc(Cl)c(Cl)c4)cs3)cc2C(=O)O)cc1` [Example 58, 4-[4-(3,4-Dichloro-phenyl)-thiazol-2-yl]-4′-(3-morpholin-4-yl-propylcarbamoyl)-biphenyl-2-carboxylic acid]: more than 80 µM. The same measure for `O=C(NCCN1CCOCC1)c1ccc(-c2ccc(-c3nc(-c4ccc(Cl)c(Cl)c4)cs3)cc2C(=O)O)cc1` [Example 59, 4-[4-(3,4-Dichloro-phenyl)-thiazol-2-yl]-4′-(2-morpholin-4-yl-ethylcarbamoyl)-biphenyl-2-carboxylic acid]: more than 80 µM. Next, `O=C(NCC1CCOCC1)c1ccc(-c2ccc(-c3nc(-c4ccc(Cl)c(Cl)c4)cs3)cc2C(=O)O)cc1` [Example 60, 4-[4-(3,4-Dichloro-phenyl)-thiazol-2-yl]-4′-[(tetrahydro-pyran-4-ylmethyl)-carbamoyl]-biphenyl-2-carboxylic acid]: 8.9 µM; `O=C(NCC1CCCO1)c1ccc(-c2ccc(-c3nc(-c4ccc(Cl)c(Cl)c4)cs3)cc2C(=O)O)cc1` (stereo not drawn) [Example 61, 4-[4-(3,4-Dichloro-phenyl)-thiazol-2-yl]-4′-[(tetrahydro-furan-2-ylmethyl)-carbamoyl]-biphenyl-2-carboxylic acid]: 5.5 µM; `O=C(NC1CCOC1)c1ccc(-c2ccc(-c3nc(-c4ccc(Cl)c(Cl)c4)cs3)cc2C(=O)O)cc1` (stereo not drawn) [Example 62, 4-[4-(3,4-Dichloro-phenyl)-thiazol-2-yl]-4′-(tetrahydro-furan-3-ylcarbamoyl)-biphenyl-2-carboxylic acid]: 7.7 µM. Consider `O=C(NC1CCOCC1)c1ccc(-c2ccc(-c3nc(-c4ccc(Cl)c(Cl)c4)cs3)cc2C(=O)O)cc1` [Example 63, 4-[4-(3,4-Dichloro-phenyl)-thiazol-2-yl]-4′-(tetrahydro-pyran-4-ylcarbamoyl)-biphenyl-2-carboxylic acid], for which the IC50 was determined as 5.7 µM. Next, `COc1ccc(CNC(=O)c2ccc(-c3ccc(-c4nc(-c5ccc(Cl)c(Cl)c5)cs4)cc3C(=O)O)cc2)cc1` [Example 64, 4-[4-(3,4-Dichloro-phenyl)-thiazol-2-yl]-4′-(4-methoxy-benzylcarbamoyl)-biphenyl-2-carboxylic acid]: 2 µM; `COc1cccc(CNC(=O)c2ccc(-c3ccc(-c4nc(-c5ccc(Cl)c(Cl)c5)cs4)cc3C(=O)O)cc2)c1` [Example 65, 4-[4-(3,4-Dichloro-phenyl)-thiazol-2-yl]-4′-(3-methoxy-benzylcarbamoyl)-biphenyl-2-carboxylic acid]: 1.3 µM; `O=C(NCCc1cccnc1)c1ccc(-c2ccc(-c3nc(-c4ccc(Cl)c(Cl)c4)cs3)cc2C(=O)O)cc1` [Example 66, 4-[4-(3,4-Dichloro-phenyl)-thiazol-2-yl]-4′-(2-pyridin-3-yl-ethylcarbamoyl)-biphenyl-2-carboxylic acid]: 9.6 µM.

In turn, `O=C(NCCc1ccccc1)c1ccc(-c2ccc(-c3nc(-c4ccc(Cl)c(Cl)c4)cs3)cc2C(=O)O)cc1` [Example 67, 4-[4-(3,4-Dichloro-phenyl)-thiazol-2-yl]-4′-phenethylcarbamoyl-biphenyl-2-carboxylic acid] had an IC50 of 2.9 µM.

As for `O=C(NCc1ccncc1)c1ccc(-c2ccc(-c3nc(-c4ccc(Cl)c(Cl)c4)cs3)cc2C(=O)O)cc1` [Example 69, 4-[4-(3,4-Dichloro-phenyl)-thiazol-2-yl]-4′-[(pyridin-4-ylmethyl)-carbamoyl]-biphenyl-2-carboxylic acid], the IC50 stood at 7.1 µM.

On to `Cc1cccc(CNC(=O)c2ccc(-c3ccc(-c4nc(-c5ccc(Cl)c(Cl)c5)cs4)cc3C(=O)O)cc2)c1` [Example 70, 4-[4-(3,4-Dichloro-phenyl)-thiazol-2-yl]-4′-(3-methyl-benzylcarbamoyl)-biphenyl-2-carboxylic acid], for which the IC50 was found to be 1.7 µM. This IC50 lies about 4.2-fold lower than the previous one.

As to `O=C(NCc1cccc(C(F)(F)F)c1)c1ccc(-c2ccc(-c3nc(-c4ccc(Cl)c(Cl)c4)cs3)cc2C(=O)O)cc1` [Example 71, 4-[4-(3,4-Dichloro-phenyl)-thiazol-2-yl]-4′-(3-trifluoromethyl-benzylcarbamoyl)-biphenyl-2-carboxylic acid], the IC50 turned out to be 3.2 µM. Turning to `O=C(NCc1ccc(F)cc1)c1ccc(-c2ccc(-c3nc(-c4ccc(Cl)c(Cl)c4)cs3)cc2C(=O)O)cc1` [Example 72, 4-[4-(3,4-Dichloro-phenyl)-thiazol-2-yl]-4′-(4-fluoro-benzylcarbamoyl)-biphenyl-2-carboxylic acid], the IC50 worked out at 1.5 µM. In turn, `O=C(NCc1cccc(F)c1)c1ccc(-c2ccc(-c3nc(-c4ccc(Cl)c(Cl)c4)cs3)cc2C(=O)O)cc1` [Example 73, 4-[4-(3,4-Dichloro-phenyl)-thiazol-2-yl]-4′-(3-fluoro-benzylcarbamoyl)-biphenyl-2-carboxylic acid] gave an IC50 of 2.1 µM. `O=C(NCc1ccccc1F)c1ccc(-c2ccc(-c3nc(-c4ccc(Cl)c(Cl)c4)cs3)cc2C(=O)O)cc1` [Example 74, 4-[4-(3,4-Dichloro-phenyl)-thiazol-2-yl]-4′-(2-fluoro-benzylcarbamoyl)-biphenyl-2-carboxylic acid] yielded a concentration for half-maximal inhibition (IC50) of 2.5 µM. In turn, `O=C(NCc1cccs1)c1ccc(-c2ccc(-c3nc(-c4ccc(Cl)c(Cl)c4)cs3)cc2C(=O)O)cc1` [Example 75, 4-[4-(3,4-Dichloro-phenyl)-thiazol-2-yl]-4′-[(thiophen-2-ylmethyl)-carbamoyl]-biphenyl-2-carboxylic acid] displayed an IC50 of 3.1 µM. On to `O=C(NCc1ccccc1)c1ccc(-c2ccc(-c3nc(-c4ccc(Cl)c(Cl)c4)cs3)cc2C(=O)O)cc1` [Example 76, 4′-Benzylcarbamoyl-4-[4-(3,4-dichloro-phenyl)-thiazol-2-yl]-biphenyl-2-carboxylic acid], for which the IC50 was found to be 2.3 µM.

As to `NC(=O)c1ncccc1-c1ccc(-c2nc(-c3ccc(Cl)c(Cl)c3)cs2)cc1C(=O)O` [Example 77, 2-(2-Carbamoyl-pyridin-3-yl)-5-[4-(3,4-dichloro-phenyl)-thiazol-2-yl]-benzoic acid], the half-inhibitory concentration (IC50) is 1.3 µM. Turning to `Cc1cc(C(N)=O)ccc1-c1ccc(-c2nc(-c3ccc(Cl)c(Cl)c3)cs2)cc1C(=O)O` [Example 78, 4′-Carbamoyl-4-[4-(3,4-dichloro-phenyl)-thiazol-2-yl]-2′-methyl-biphenyl-2-carboxylic acid], the IC50 came out at 1.9 µM. The same measure for `Cc1cc(C(=O)O)ccc1-c1ccc(-c2nc(-c3ccc(Cl)c(Cl)c3)cs2)cc1C(=O)O` [Example 79, 4-[4-(3,4-Dichloro-phenyl)-thiazol-2-yl]-2′-methyl-biphenyl-2,4′-dicarboxylic acid]: 5.4 µM.

Molecule `CCOc1ncc(-c2ccc(-c3nc(-c4ccc(Cl)c(Cl)c4)cs3)cc2C(=O)O)cn1` [Example 82, 5-[4-(3,4-Dichloro-phenyl)-thiazol-2-yl]-2-(2-ethoxy-pyrimidin-5-yl)-benzoic acid] displayed an IC50 of 3.6 µM. On to `COc1ncc(-c2ccc(-c3nc(-c4ccc(Cl)c(Cl)c4)cs3)cc2C(=O)O)cn1` [Example 83, 5-[4-(3,4-Dichloro-phenyl)-thiazol-2-yl]-2-(2-methoxy-pyrimidin-5-yl)-benzoic acid], for which the IC50 came to 14 µM.

`O=C(O)c1cc(-c2nc(-c3ccc(Cl)c(Cl)c3)cs2)ccc1-c1cnc(O)nc1` [Example 84, 5-[4-(3,4-Dichloro-phenyl)-thiazol-2-yl]-2-(2-hydroxy-pyrimidin-5-yl)-benzoic acid] showed an IC50 of 1.2 µM. In turn, `COc1cccc(-c2ccc(-c3nc(-c4ccc(Cl)c(Cl)c4)cs3)cc2C(=O)O)n1` [Example 85, 5-[4-(3,4-Dichloro-phenyl)-thiazol-2-yl]-2-(6-methoxy-pyridin-2-yl)-benzoic acid] displayed an IC50 of 9.7 µM. Against the preceding molecule, the IC50 is about 8.1-fold higher. The same measure for `COc1ccc(-c2ccc(-c3nc(-c4ccc(Cl)c(Cl)c4)cs3)cc2C(=O)O)c(C(F)(F)F)c1` [Example 87, 4-[4-(3,4-Dichloro-phenyl)-thiazol-2-yl]-4′-methoxy-2′-trifluoromethyl-biphenyl-2-carboxylic acid]: 1.3 µM.
